Measured values: US9072675B2, “Non-irritating benzoyl peroxide” (Essential Ingredients, Inc., priority 2010, dated 2015)

Test system: skin of the infrascapular regions of the back
Test: Cumulative irritation patch test (12 days, semi-occlusive patches)
Conditions: 25 subjects, 24 hour semi-occlusive patches over 12 days, daily score capped at 3; maximum 900
Procedure: Twenty-five subjects ages 20-65 were requested to bathe or wash as usual before arrival at the facility. Qualified subjects were then prepared for patch application by having the test sites wiped with alcohol and air-dried. […] Patches were applied for approximately a 24 hour period, then removed and discarded by the subject approximately two hours prior to grading. All induction patches were applied to the same sites unless the degree of reaction (cumulative grade 3) to a material or the adhesive necessitated removal. The skin adjacent to the patches was marked using a surgical marker or other suitable marking pen. Prior to each reapplication, the test sites were evaluated. At the final visit, no patches were applied and the patch sites were graded. Skin responses were evaluated according to the following scale by a technical associate of AMA Laboratories, Inc. (scorer) trained in the evaluation of skin using consistent adequate lighting from a 60-watt incandescent blue day light bulb to illuminate the patch area. All reasonable attempts were made to ensure that the same individual did all of the scoring of reactions to the test articles during the course of the study, and was blinded to the treatment assignments and any previous scores. […]

Compound: CCCCCCCCCCCCOS(=O)(=O)[O-].[Na+] [Sodium Lauryl Sulfate]
- total cumulative irritancy score: 78
